Biological target: T1, soluble guanylate cyclase (sGC) (Homo sapiens, UniProt Q02108+Q02153)
T1 construct: endogenously expressing soluble guanylate cyclase (sGC); endogenous in cells; host or cells: HEK293
T1 sequence (Q02153 1-619): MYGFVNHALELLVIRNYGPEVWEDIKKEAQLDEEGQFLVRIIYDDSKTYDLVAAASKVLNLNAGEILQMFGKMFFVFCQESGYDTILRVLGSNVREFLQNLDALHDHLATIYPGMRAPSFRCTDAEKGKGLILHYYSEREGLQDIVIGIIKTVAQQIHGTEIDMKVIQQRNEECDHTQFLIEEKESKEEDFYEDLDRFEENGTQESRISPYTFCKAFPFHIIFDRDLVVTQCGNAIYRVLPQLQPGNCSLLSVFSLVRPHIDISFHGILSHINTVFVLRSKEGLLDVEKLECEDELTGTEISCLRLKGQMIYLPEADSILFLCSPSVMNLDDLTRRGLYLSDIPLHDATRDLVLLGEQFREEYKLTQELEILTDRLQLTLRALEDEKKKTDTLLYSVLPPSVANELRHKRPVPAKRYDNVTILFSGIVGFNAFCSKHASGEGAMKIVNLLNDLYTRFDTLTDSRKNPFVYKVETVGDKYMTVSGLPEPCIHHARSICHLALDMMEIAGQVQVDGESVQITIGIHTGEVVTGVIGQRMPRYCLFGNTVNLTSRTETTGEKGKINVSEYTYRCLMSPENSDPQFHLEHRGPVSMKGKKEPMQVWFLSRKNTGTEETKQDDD
T1 sequence (Q02108 1-690): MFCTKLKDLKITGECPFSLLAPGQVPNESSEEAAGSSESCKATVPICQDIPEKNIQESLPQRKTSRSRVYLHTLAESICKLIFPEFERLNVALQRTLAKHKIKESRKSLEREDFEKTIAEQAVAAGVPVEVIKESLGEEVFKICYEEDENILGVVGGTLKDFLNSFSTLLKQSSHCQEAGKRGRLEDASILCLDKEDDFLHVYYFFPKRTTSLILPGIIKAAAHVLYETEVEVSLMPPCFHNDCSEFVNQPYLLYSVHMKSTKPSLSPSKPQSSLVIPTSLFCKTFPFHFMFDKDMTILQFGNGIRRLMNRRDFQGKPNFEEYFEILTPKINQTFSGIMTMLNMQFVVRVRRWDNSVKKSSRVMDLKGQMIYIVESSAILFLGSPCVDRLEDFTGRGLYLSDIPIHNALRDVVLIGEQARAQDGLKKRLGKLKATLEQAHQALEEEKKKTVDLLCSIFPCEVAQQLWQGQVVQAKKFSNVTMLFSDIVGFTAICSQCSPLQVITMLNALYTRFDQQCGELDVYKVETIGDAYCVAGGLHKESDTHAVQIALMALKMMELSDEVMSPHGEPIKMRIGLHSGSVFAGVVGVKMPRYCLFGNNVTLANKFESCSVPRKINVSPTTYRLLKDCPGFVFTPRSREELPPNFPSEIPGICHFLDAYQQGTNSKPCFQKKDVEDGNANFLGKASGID
Test: sGC-HEK-cGMP assay
Format: cell-based
Details: HEK293 cells, 10 min incubation, intracellular cGMP by LC/MS; for Increase in cGMP Concentration Tested at 10 μM in HEK Assay: test compound 10 μM; for Increase in cGMP Concentration Tested at 30 μM in HEK Assay: test compound 30 μM
Experimental: Human embryonic kidney cells (HEK293), endogenously expressing soluble guanylate cyclase (sGC), were used to evaluate the activity of test compounds. Compounds stimulating the sGC receptor should cause an increase in the intracellular concentration of cGMP. […] Cells were then incubated for 15 minutes at 37° C. with 0.5 mM 3-isobutyl-1-methylxanthine (2004). Test article was then added to the assay mixture (2 μL) and incubated at 37° C. for 10 minutes. After the 10 minute incubation, the assay mixture was aspirated and 0.1M HCl (2004) was added to the cells. The plate was incubated at 4° C. for 30 minutes in the 0.1M HCl to stop the reaction and lyse the cells. The plates were then centrifuged at 1,200 g for 5 minutes at room temperature. Supernatants were collected and transferred to a new flat bottom 96 well plate for analysis. Vehicle controls were carried out using DMSO (1%). A known sGC stimulator, BAY 41-2272, was used as the positive control.
Samples were diluted with an equal volume of 1 M Ammonium Acetate (pH 7) to neutralize samples for better chromatography. A 2×cGMP standard curve was prepared in 0.1 M HCl and then diluted with an equal volume of 1 M Ammonium Acetate, with the following final concentrations in nM: 1024, 512, 256, 128, 64, 32, 16, 8, 4, 2, 1.
cGMP concentrations were determined from each sample using the LC/MS conditions (Table 2 below) and calculated standard curve. EC50 values were calculated from concentration-response curves generated with GraphPad Prism Software.

COC(=O)Nc1c(N)nc(-c2nn(Cc3ccccc3F)c3c2CCCC3)nc1N [Compound I-13]
Increase in cGMP Concentration Tested at 10 μM in HEK Assay: A (A represents no increase or an increase ranging from more than 0 fold to less than 5 fold)
Increase in cGMP Concentration Tested at 30 μM in HEK Assay: A (A represents no increase or an increase ranging from more than 0 fold to less than 5 fold)

O=S(=O)(c1ccccc1)N1CCc2c(c(-c3ncccn3)nn2Cc2ccccc2F)C1 [Compound I-53, 1-(2-fluorobenzyl)-5-(phenylsulfonyl)-3-(pyrimidin-2-yl)-4,5,6,7-tetrahydro-1H-pyrazolo[4,3-c]pyridine]
Increase in cGMP Concentration Tested at 10 μM in HEK Assay: A (A represents no increase or an increase ranging from more than 0 fold to less than 5 fold)
Increase in cGMP Concentration Tested at 30 μM in HEK Assay: A (A represents no increase or an increase ranging from more than 0 fold to less than 5 fold)

N#Cc1cccc(Cn2nc(-c3ncccn3)c3c2CCCC3)c1 [Compound I-9]
Increase in cGMP Concentration Tested at 10 μM in HEK Assay: A (A represents no increase or an increase ranging from more than 0 fold to less than 5 fold)
Increase in cGMP Concentration Tested at 30 μM in HEK Assay: B (B represents an increase ranging from 5 fold to less than 10 fold)

O=C1CCCc2c1c(-c1ncccn1)nn2Cc1ccccc1F [Compound I-21]
Increase in cGMP Concentration Tested at 10 μM in HEK Assay: A (A represents no increase or an increase ranging from more than 0 fold to less than 5 fold)
Increase in cGMP Concentration Tested at 30 μM in HEK Assay: A (A represents no increase or an increase ranging from more than 0 fold to less than 5 fold)

Fc1ccccc1Cn1nc(-c2ncccn2)c2c1CCC(F)(F)C2 [Compound I-30]
Increase in cGMP Concentration Tested at 10 μM in HEK Assay: A (A represents no increase or an increase ranging from more than 0 fold to less than 5 fold)
Increase in cGMP Concentration Tested at 30 μM in HEK Assay: A (A represents no increase or an increase ranging from more than 0 fold to less than 5 fold)

Fc1ccccc1Cn1nc(-c2ncccn2)c2c1CCSC2 [Compound I-15]
Increase in cGMP Concentration Tested at 10 μM in HEK Assay: C (C represents an increase ranging from 10 fold to less than 20 fold)
Increase in cGMP Concentration Tested at 30 μM in HEK Assay: C (C represents an increase ranging from 10 fold to less than 20 fold)

N#Cc1ccccc1Cn1nc(-c2ncccn2)c2c1CCCC2 [Compound I-8]
Increase in cGMP Concentration Tested at 10 μM in HEK Assay: C (C represents an increase ranging from 10 fold to less than 20 fold)
Increase in cGMP Concentration Tested at 30 μM in HEK Assay: D (D represents an increase ranging from 20 fold to less than 50 fold)

CC(=O)N1CCc2c(c(-c3ncccn3)nn2Cc2ccccc2F)C1 [Compound I-52, 1-(1-(2-fluorobenzyl)-3-(pyrimidin-2-yl)-6,7-dihydro-1H-pyrazolo[4,3-c]pyridin-5(4H)-yl)ethanone]
Increase in cGMP Concentration Tested at 10 μM in HEK Assay: A (A represents no increase or an increase ranging from more than 0 fold to less than 5 fold)
Increase in cGMP Concentration Tested at 30 μM in HEK Assay: A (A represents no increase or an increase ranging from more than 0 fold to less than 5 fold)

O=C(c1ccncc1)N1CCc2c(c(-c3ncccn3)nn2Cc2ccccc2F)C1 [Compound I-55]
Increase in cGMP Concentration Tested at 10 μM in HEK Assay: A (A represents no increase or an increase ranging from more than 0 fold to less than 5 fold)
Increase in cGMP Concentration Tested at 30 μM in HEK Assay: A (A represents no increase or an increase ranging from more than 0 fold to less than 5 fold)

Fc1ccccc1Cn1nc(-c2ccncc2)c2c1CCCC2 [Compound I-49, 1-(2-fluorobenzyl)-3-(pyridin-4-yl)-4,5,6,7-tetrahydro-1H-indazole]
Increase in cGMP Concentration Tested at 10 μM in HEK Assay: A (A represents no increase or an increase ranging from more than 0 fold to less than 5 fold)
Increase in cGMP Concentration Tested at 30 μM in HEK Assay: A (A represents no increase or an increase ranging from more than 0 fold to less than 5 fold)

Nc1nc(-c2nn(Cc3ccccc3F)c3c2CCCC3)nc(N)c1N1CCOC1=O [Compound I-26]
Increase in cGMP Concentration Tested at 10 μM in HEK Assay: A (A represents no increase or an increase ranging from more than 0 fold to less than 5 fold)
Increase in cGMP Concentration Tested at 30 μM in HEK Assay: B (B represents an increase ranging from 5 fold to less than 10 fold)

CC1(C)CCCc2c(-c3ncccn3)nn(Cc3ccccc3F)c21 [Compound I-16]
Increase in cGMP Concentration Tested at 10 μM in HEK Assay: A (A represents no increase or an increase ranging from more than 0 fold to less than 5 fold)
Increase in cGMP Concentration Tested at 30 μM in HEK Assay: B (B represents an increase ranging from 5 fold to less than 10 fold)

O=C(c1cccnc1)N1CCc2c(c(-c3ncccn3)nn2Cc2ccccc2F)C1 [Compound I-54]
Increase in cGMP Concentration Tested at 10 μM in HEK Assay: A (A represents no increase or an increase ranging from more than 0 fold to less than 5 fold)
Increase in cGMP Concentration Tested at 30 μM in HEK Assay: A (A represents no increase or an increase ranging from more than 0 fold to less than 5 fold)

c1cnc(-c2nn(Cc3cccc4ccccc34)c3c2CCCC3)nc1 [Compound I-11]
Increase in cGMP Concentration Tested at 10 μM in HEK Assay: A (A represents no increase or an increase ranging from more than 0 fold to less than 5 fold)
Increase in cGMP Concentration Tested at 30 μM in HEK Assay: A (A represents no increase or an increase ranging from more than 0 fold to less than 5 fold)

Nc1nc(-c2nn(Cc3ccccc3F)c3c2CCC3)nc(N)c1/N=N/c1ccccc1 [Compound I-34]
Increase in cGMP Concentration Tested at 10 μM in HEK Assay: A (A represents no increase or an increase ranging from more than 0 fold to less than 5 fold)
Increase in cGMP Concentration Tested at 30 μM in HEK Assay: A (A represents no increase or an increase ranging from more than 0 fold to less than 5 fold)

Fc1cccc(Cn2nc(-c3ncccn3)c3c2CCCC3)c1 [Compound I-7]
Increase in cGMP Concentration Tested at 10 μM in HEK Assay: C (C represents an increase ranging from 10 fold to less than 20 fold)
Increase in cGMP Concentration Tested at 30 μM in HEK Assay: D (D represents an increase ranging from 20 fold to less than 50 fold)

CC1(C)CCc2c(c(-c3ncccn3)nn2Cc2ccccc2F)C1 [Compound I-17]
Increase in cGMP Concentration Tested at 10 μM in HEK Assay: B (B represents an increase ranging from 5 fold to less than 10 fold)
Increase in cGMP Concentration Tested at 30 μM in HEK Assay: A (A represents no increase or an increase ranging from more than 0 fold to less than 5 fold)

O=C(c1ccccn1)N1CCc2c(c(-c3ncccn3)nn2Cc2ccccc2F)C1 [Compound I-56]
Increase in cGMP Concentration Tested at 10 μM in HEK Assay: A (A represents no increase or an increase ranging from more than 0 fold to less than 5 fold)
Increase in cGMP Concentration Tested at 30 μM in HEK Assay: A (A represents no increase or an increase ranging from more than 0 fold to less than 5 fold)

CC1(C)C=Cc2c(c(-c3ncccn3)nn2Cc2ccccc2F)C1 [Compound I-29]
Increase in cGMP Concentration Tested at 10 μM in HEK Assay: A (A represents no increase or an increase ranging from more than 0 fold to less than 5 fold)
Increase in cGMP Concentration Tested at 30 μM in HEK Assay: B (B represents an increase ranging from 5 fold to less than 10 fold)

Nc1nc(N)nc(-c2nn(Cc3ccccc3F)c3c2CCC3)n1 [Compound I-4]
Increase in cGMP Concentration Tested at 10 μM in HEK Assay: A (A represents no increase or an increase ranging from more than 0 fold to less than 5 fold)
Increase in cGMP Concentration Tested at 30 μM in HEK Assay: A (A represents no increase or an increase ranging from more than 0 fold to less than 5 fold)
